Measured values published in PubChem BioAssay AID2060486 (Molecular Pharmacology Branch, DTP, NCI, 2025).

Test system: IGROV1 complex spheroids (HUVEC, MSC), viability % test/control
Test: Anticancer human tumor IGROV1 cell line growth inhibition [GQUAD];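 note: spheroids exposed to compounds for 7 days before readout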;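 for viability, T/C: 100% = DMSO vehicle control viability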
Details: for IC50: curve of first compound; for viability, T/C: stronger effect = lower value
Procedure, shortened: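 Viability of tumor cells grown as complex spheroids with endothelial and stromal cells, exposed to drug combinations. Top concentration at or near clinical Cmax (else 10 microM), diluted in half-log increments.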

[1] = second compound 0.0316 µM, first compound 0.0316 µM
[2] = second compound 0.0316 µM, first compound 0.1 µM
[3] = second compound 0.0316 µM, first compound 0.316 µM
[4] = second compound 0.0316 µM, first compound 1 µM
[5] = second compound 0.0316 µM, first compound 3.16 µM
[6] = second compound 0.0316 µM, first compound 10 µM
[7] = second compound 0.1 µM, first compound 0.0316 µM
[8] = second compound 0.1 µM, first compound 0.1 µM
[9] = second compound 0.1 µM, first compound 0.316 µM
[10] = second compound 0.1 µM, first compound 1 µM
[11] = second compound 0.1 µM, first compound 3.16 µM
[12] = second compound 0.1 µM, first compound 10 µM
[13] = second compound 0.316 µM, first compound 0.0316 µM
[14] = second compound 0.316 µM, first compound 0.1 µM
[15] = second compound 0.316 µM, first compound 0.316 µM
[16] = second compound 0.316 µM, first compound 1 µM
[17] = second compound 0.316 µM, first compound 3.16 µM
[18] = second compound 0.316 µM, first compound 10 µM
[19] = second compound 1 µM, first compound 0.0316 µM
[20] = second compound 1 µM, first compound 0.1 µM
[21] = second compound 1 µM, first compound 0.316 µM
[22] = second compound 1 µM, first compound 1 µM
[23] = second compound 1 µM, first compound 3.16 µM
[24] = second compound 1 µM, first compound 10 µM
[25] = second compound 3.16 µM, first compound 0.0316 µM
[26] = second compound 3.16 µM, first compound 0.1 µM
[27] = second compound 3.16 µM, first compound 0.316 µM
[28] = second compound 3.16 µM, first compound 1 µM
[29] = second compound 3.16 µM, first compound 3.16 µM
[30] = second compound 3.16 µM, first compound 10 µM
[31] = second compound 10 µM, first compound 0.0316 µM
[32] = second compound 10 µM, first compound 0.1 µM
[33] = second compound 10 µM, first compound 0.316 µM
[34] = second compound 10 µM, first compound 1 µM
[35] = second compound 10 µM, first compound 3.16 µM
[36] = second compound 10 µM, first compound 10 µM

For `C=CC(=O)N1CCN(c2nc(=O)n(-c3c(C)ccnc3C(C)C)c3nc(-c4c(O)cccc4F)c(F)cc23)C(C)C1` (stereo not drawn) + Cc1[nH]c2ccc(F)cc2c1-c1nc2c3cccnc3c3ncccc3c2[nH]1, the IC50 (second compound 0.0316 µM) was greater than 10000 nM, the IC50 (second compound 0.1 µM) was greater than 10000 nM and the IC50 (second compound 0.316 µM) was greater than 10000 nM. The IC50 (second compound 1 µM) was less than 31.6 nM, the IC50 (second compound 3.16 µM) was less than 31.6 nM and the IC50 (second compound 10 µM) was less than 31.6 nM. For the same compound, the viability, T/C [1] was 104%, the viability, T/C [2] was 70.5% and the viability, T/C [3] was 103%. It also gave a viability, T/C [4] of 45.8%, a viability, T/C [5] of 94.8% and a viability, T/C [6] of 87.5%. It also gave a viability, T/C [7] of 90.2%, a viability, T/C [8] of 89.7% and a viability, T/C [9] of 80.6%. It also gave a viability, T/C [10] of 75.1%, a viability, T/C [11] of 92.8% and a viability, T/C [12] of 99.2%. The viability, T/C [13] was 70.5%, the viability, T/C [14] was 93.9% and the viability, T/C [15] was 76.2%. It also gave a viability, T/C [16] of 78.9%, a viability, T/C [17] of 80% and a viability, T/C [18] of 56.8%. For the same compound, the viability, T/C [19] was 3.43%, the viability, T/C [20] was 3.79% and the viability, T/C [21] was 6.26%. For the same compound, the viability, T/C [22] was 4.23%, the viability, T/C [23] was 4.27% and the viability, T/C [24] was 2.01%. The viability, T/C [25] was 3.63%, the viability, T/C [26] was 4.79% and the viability, T/C [27] was 4.74%. For the same compound, the viability, T/C [28] was 4.03%, the viability, T/C [29] was 4.45% and the viability, T/C [30] was 2.13%. It also gave a viability, T/C [31] of 4.57%, a viability, T/C [32] of 4.39% and a viability, T/C [33] of 4.91%. For the same compound, the viability, T/C [34] was 5.12%, the viability, T/C [35] was 4.17% and the viability, T/C [36] was 2.46%.

For `CC1COCCN1c1cc(C2(O)CC3CCC(C2)O3)c2cnn(-c3ccn[nH]3)c2n1` (stereo not drawn) + CN(C)c1ccc(Nc2c3ccc(NC(=O)CCN4CCCC4)cc3nc3cc(NC(=O)CCN4CCCC4)ccc23)cc1, the IC50 (second compound 0.0316 µM) was 36.8 nM, the IC50 (second compound 0.1 µM) was less than 31.6 nM and the IC50 (second compound 0.316 µM) was less than 31.6 nM. It also gave an IC50 (second compound 1 µM) of less than 31.6 nM, an IC50 (second compound 3.16 µM) of less than 31.6 nM and an IC50 (second compound 10 µM) of less than 31.6 nM. For the same compound, the viability, T/C [1] was 54.8%, the viability, T/C [2] was 20% and the viability, T/C [3] was 7.64%. It also gave a viability, T/C [4] of 5.68%, a viability, T/C [5] of 2.88% and a viability, T/C [6] of 1.63%. For the same compound, the viability, T/C [7] was 45%, the viability, T/C [8] was 22.7% and the viability, T/C [9] was 9.08%. It also gave a viability, T/C [10] of 5.11%, a viability, T/C [11] of 3.48% and a viability, T/C [12] of 1.19%. It also gave a viability, T/C [13] of 45.8%, a viability, T/C [14] of 19% and a viability, T/C [15] of 9.25%. It also gave a viability, T/C [16] of 4.51%, a viability, T/C [17] of 4.65% and a viability, T/C [18] of 1.93%. For the same compound, the viability, T/C [19] was 42.6%, the viability, T/C [20] was 17.5% and the viability, T/C [21] was 8.86%. For the same compound, the viability, T/C [22] was 5.16%, the viability, T/C [23] was 4.18% and the viability, T/C [24] was 1.58%. It also gave a viability, T/C [25] of 38.7%, a viability, T/C [26] of 13.4% and a viability, T/C [27] of 8.17%. It also gave a viability, T/C [28] of 4.73%, a viability, T/C [29] of 4% and a viability, T/C [30] of 1.78%. For the same compound, the viability, T/C [31] was 17%, the viability, T/C [32] was 10.2% and the viability, T/C [33] was 5.93%. For the same compound, the viability, T/C [34] was 4.42%, the viability, T/C [35] was 3.55% and the viability, T/C [36] was 1.05%.

Work on `Nc1ccn(C2OC(CO)C(O)C2(F)F)c(=O)n1` (stereo not drawn) + CN(C)c1ccc(Nc2c3ccc(NC(=O)CCN4CCCC4)cc3nc3cc(NC(=O)CCN4CCCC4)ccc23)cc1 yielded an IC50 (second compound 0.0316 µM) of less than 31.6 nM, an IC50 (second compound 0.1 µM) of less than 31.6 nM and an IC50 (second compound 0.316 µM) of less than 31.6 nM. It also gave an IC50 (second compound 1 µM) of less than 31.6 nM, an IC50 (second compound 3.16 µM) of less than 31.6 nM and an IC50 (second compound 10 µM) of less than 31.6 nM. For the same compound, the viability, T/C [1] was 11.5%, the viability, T/C [2] was 6.58% and the viability, T/C [3] was 6.05%. It also gave a viability, T/C [4] of 6.75%, a viability, T/C [5] of 6.08% and a viability, T/C [6] of 4.2%. For the same compound, the viability, T/C [7] was 12.7%, the viability, T/C [8] was 5.68% and the viability, T/C [9] was 6.81%. The viability, T/C [10] was 6.8%, the viability, T/C [11] was 5.93% and the viability, T/C [12] was 4.32%. The viability, T/C [13] was 13.1%, the viability, T/C [14] was 5.27% and the viability, T/C [15] was 6.2%. The viability, T/C [16] was 6.03%, the viability, T/C [17] was 5.63% and the viability, T/C [18] was 6.07%. For the same compound, the viability, T/C [19] was 11.6%, the viability, T/C [20] was 5.93% and the viability, T/C [21] was 7.47%. The viability, T/C [22] was 6.02%, the viability, T/C [23] was 6.39% and the viability, T/C [24] was 5.81%. The viability, T/C [25] was 10.2%, the viability, T/C [26] was 5.96% and the viability, T/C [27] was 6.33%. It also gave a viability, T/C [28] of 5.69%, a viability, T/C [29] of 5.78% and a viability, T/C [30] of 4.9%. For the same compound, the viability, T/C [31] was 6.83%, the viability, T/C [32] was 4.85% and the viability, T/C [33] was 4.16%. For the same compound, the viability, T/C [34] was 4.94%, the viability, T/C [35] was 4.47% and the viability, T/C [36] was 4.53%.

`CC(=O)O[C@H]1C(=O)[C@@]2(C)[C@H]([C@H](OC(=O)c3ccccc3)[C@]3(O)C[C@H](OC(=O)[C@H](O)[C@@H](NC(=O)c4ccccc4)c4ccccc4)C(C)=C1C3(C)C)[C@]1(OC(C)=O)CO[C@@H]1C[C@@H]2O` + Cc1cnc(CNC(=O)c2c(=O)c3ccc(N4CCCN(C)CC4)nc3n3c2sc2ccccc23)cn1 showed an IC50 (second compound 0.0316 µM) of less than 31.6 nM, an IC50 (second compound 0.1 µM) of less than 31.6 nM and an IC50 (second compound 0.316 µM) of less than 31.6 nM. For the same compound, the IC50 (second compound 1 µM) was less than 31.6 nM, the IC50 (second compound 3.16 µM) was less than 31.6 nM and the IC50 (second compound 10 µM) was less than 31.6 nM. It also gave a viability, T/C [1] of 6.85%, a viability, T/C [2] of 7.2% and a viability, T/C [3] of 5.93%. For the same compound, the viability, T/C [4] was 4.84%, the viability, T/C [5] was 5.81% and the viability, T/C [6] was 5%. The viability, T/C [7] was 8.41%, the viability, T/C [8] was 6.77% and the viability, T/C [9] was 4.59%. The viability, T/C [10] was 5.47%, the viability, T/C [11] was 5.23% and the viability, T/C [12] was 5.1%. For the same compound, the viability, T/C [13] was 7.94%, the viability, T/C [14] was 7.36% and the viability, T/C [15] was 5.21%. The viability, T/C [16] was 5.4%, the viability, T/C [17] was 5.37% and the viability, T/C [18] was 5.62%. For the same compound, the viability, T/C [19] was 8.3%, the viability, T/C [20] was 8.57% and the viability, T/C [21] was 6.36%. It also gave a viability, T/C [22] of 6.43%, a viability, T/C [23] of 6.28% and a viability, T/C [24] of 5.79%. For the same compound, the viability, T/C [25] was 7.17%, the viability, T/C [26] was 6.44% and the viability, T/C [27] was 7.03%. It also gave a viability, T/C [28] of 6.22%, a viability, T/C [29] of 6.75% and a viability, T/C [30] of 5.4%. The viability, T/C [31] was 5.82%, the viability, T/C [32] was 6.66% and the viability, T/C [33] was 6.12%. The viability, T/C [34] was 6.29%, the viability, T/C [35] was 6.72% and the viability, T/C [36] was 6.2%.
